Measured values as given in the NIST ThermoML archive (doi:10.1021/acs.jced.7b00704).
Numbers after ± are expanded uncertainties.

Assay: refractive index (Na D-line) (dimensionless); xn = mol fraction of the nth substance listed
Conditions: 293.15 K, 93 kPa, Liquid, Standard Abbe refractometry

Which refractive index (x2 = 0) does the source give for COC(=O)OC [dimethyl carbonate] + CCCOC(C)=O here?
Its refractive index is 1.3688 ± 0.0004.

For CCCOC(C)=O [propyl ethanoate] + COC(=O)OC, which refractive index (x1 = 0.0846) is on record?
The refractive index was 1.3704 ± 0.0004.

What about the refractive index (x1 = 0.1341) of the same compound?
Its refractive index is 1.3714 ± 0.0004.

What about the refractive index (x1 = 0.1705) of the same compound?
The refractive index was 1.372 ± 0.0004.

What about the refractive index (x1 = 0.223) of the same compound?
The refractive index was 1.3731 ± 0.0004.

What about the refractive index (x1 = 0.2896) of the same compound?
The refractive index was 1.3741 ± 0.0005.

And the refractive index (x1 = 0.3877)?
Its refractive index is 1.3757 ± 0.0005.

And the refractive index (x1 = 0.4374)?
The refractive index was 1.3765 ± 0.0005.

And the refractive index (x1 = 0.4989)?
The refractive index was 1.3775 ± 0.0005.

What about the refractive index (x1 = 0.562) of the same compound?
The refractive index was 1.3784 ± 0.0005.

And the refractive index (x1 = 0.669)?
Its refractive index is 1.38 ± 0.0005.

What about the refractive index (x1 = 0.7756) of the same compound?
The refractive index was 1.3815 ± 0.0005.

What about the refractive index (x1 = 0.891) of the same compound?
The refractive index was 1.383 ± 0.0005.

And the refractive index (x1 = 0.9528)?
Its refractive index is 1.3838 ± 0.0005.

And the refractive index (x1 = 1)?
Its refractive index is 1.3843 ± 0.0005.

With CC(=O)OCCC(C)C [3-methylbutyl ethanoate] + COC(=O)OC as the compound, how does the refractive index (x1 = 0.0369) read?
The refractive index was 1.3706 ± 0.0004.

What about the refractive index (x1 = 0.0721) of the same compound?
The refractive index was 1.3724 ± 0.0004.

And the refractive index (x1 = 0.2004)?
The refractive index was 1.378 ± 0.0004.

What about the refractive index (x1 = 0.2231) of the same compound?
Its refractive index is 1.3788 ± 0.0005.

What about the refractive index (x1 = 0.3091) of the same compound?
Its refractive index is 1.3821 ± 0.0005.

What about the refractive index (x1 = 0.4027) of the same compound?
Its refractive index is 1.3854 ± 0.0005.

What about the refractive index (x1 = 0.4943) of the same compound?
Its refractive index is 1.3883 ± 0.0005.

What about the refractive index (x1 = 0.6064) of the same compound?
The refractive index was 1.3915 ± 0.0005.

What about the refractive index (x1 = 0.7185) of the same compound?
The refractive index was 1.3945 ± 0.0005.

What about the refractive index (x1 = 0.8312) of the same compound?
Its refractive index is 1.3972 ± 0.0005.

What about the refractive index (x1 = 0.9243) of the same compound?
The refractive index was 1.3992 ± 0.0005.

And the refractive index (x1 = 1)?
The refractive index was 1.4007 ± 0.0005.

For COC(=O)OC [dimethyl carbonate] + CCOC(C)=O, which refractive index (x2 = 0) is on record?
The refractive index was 1.3688 ± 0.0004.

And the refractive index (x2 = 0.0861)?
The refractive index was 1.3693 ± 0.0004.

What about the refractive index (x2 = 0.1154) of the same compound?
The refractive index was 1.3694 ± 0.0004.

What about the refractive index (x2 = 0.2095) of the same compound?
Its refractive index is 1.3698 ± 0.0004.

What about the refractive index (x2 = 0.3017) of the same compound?
Its refractive index is 1.3702 ± 0.0004.

And the refractive index (x2 = 0.3685)?
The refractive index was 1.3704 ± 0.0004.

What about the refractive index (x2 = 0.3952) of the same compound?
The refractive index was 1.3705 ± 0.0004.

And the refractive index (x2 = 0.4303)?
The refractive index was 1.3707 ± 0.0004.

And the refractive index (x2 = 0.5094)?
Its refractive index is 1.371 ± 0.0004.

What about the refractive index (x2 = 0.5642) of the same compound?
The refractive index was 1.3712 ± 0.0004.

What about the refractive index (x2 = 0.6047) of the same compound?
The refractive index was 1.3713 ± 0.0004.

What about the refractive index (x2 = 0.6964) of the same compound?
The refractive index was 1.3716 ± 0.0004.

And the refractive index (x2 = 0.8026)?
Its refractive index is 1.3719 ± 0.0004.

And the refractive index (x2 = 0.8912)?
Its refractive index is 1.3722 ± 0.0004.

And the refractive index (x2 = 0.9375)?
Its refractive index is 1.3723 ± 0.0004.
